Holding throughout (assay type): functional
The species entered for assay [1] is Rattus norvegicus. The experiment in a line: Compound was tested for the selective increase in K+ stimulated AcCh release in hippocampus at 100 uM.
Assay [2] is filed under the species Rattus norvegicus. The experiment in a line: Compound was tested for the selective increase in basal stimulated AcCh release in hippocampus at 100 uM.
The species entered for assay [3] is Mus musculus. Put plainly: Compound was tested for the minimum effective dose required for the inhibition of cholinesterase in mouse water maze. The settings on record: read-out: MED.
The species named for assay [4] is Rattus norvegicus. Put plainly: Compound was tested for the selective increase in basal stimulated AcCh release in striatum. Set-up: concentration or dose not given beside the values.
Assay [5] is filed under the species Rattus norvegicus. The experiment in a line: Compound was tested for the selective increase in K+ stimulated AcCh release in cortex at 100 uM.
The species named for assay [6] is Rattus norvegicus. The experiment in a line: Compound was tested for the selective increase in K+ stimulated AcCh release in striatum. Set-up: concentration or dose not given beside the values.
The species entered for assay [7] is Rattus norvegicus. Put plainly: Compound was tested for the selective increase in basal stimulated AcCh release in cortex at 100 uM.
For assay [8], the species on record is Rattus norvegicus. The experiment in a line: Compound was tested for the selective increase in K+ stimulated AcCh release in cortex at 10 uM concentration.
The species entered for assay [9] is Rattus norvegicus. The experiment in a line: Compound was tested for the selective increase in basal stimulated AcCh release in brain region of hippocampus at 1 uM concentration.
Assay [10] is filed under the species Rattus norvegicus. The experiment in a line: Compound was tested for the selective increase in basal stimulated AcCh release in cortex at 10 uM concentration.
For assay [11], the species on record is Rattus norvegicus. The experiment in a line: Compound was tested for the selective increase in basal stimulated AcCh release in brain region of hippocampus at 50 uM concentration.
Assay [12] is filed under the species Rattus norvegicus. Put plainly: Compound was tested for the selective increase in basal stimulated AcCh release in striatum at 50 uM concentration.
Assay [13] is filed under the species Rattus norvegicus. Put plainly: Compound was tested for the selective increase in K+ stimulated AcCh release in brain region of hippocampus at 10 uM concentration.
The species named for assay [14] is Rattus norvegicus. Put plainly: Compound was tested for the selective increase in K+ stimulated AcCh release in cortex at 50 uM concentration.
The species named for assay [15] is Rattus norvegicus. The experiment in a line: Compound was tested for the selective increase in K+ stimulated AcCh release in brain region of hippocampus at 100 uM concentration.
The species entered for assay [16] is Rattus norvegicus. Put plainly: Compound was tested for the selective increase in K+ stimulated AcCh release in striatum 100 uM concentration.
The species named for assay [17] is Rattus norvegicus. Put plainly: Compound was tested for the selective increase in basal stimulated AcCh release in brain region of hippocampus at 10 uM concentration.
For assay [18], the species on record is Rattus norvegicus. Put plainly: Compound was tested for the selective increase in basal stimulated AcCh release in brain region of hippocampus at 100 uM concentration.
The species named for assay [19] is Rattus norvegicus. Put plainly: Compound was tested for the selective increase in K+ stimulated AcCh release in cortex at 100 uM concentration.
Assay [20] is filed under the species Rattus norvegicus. The experiment in a line: Compound was tested for the selective increase in K+ stimulated AcCh release in striatum 10 uM concentration.
Assay [21] is filed under the species Rattus norvegicus. The experiment in a line: Compound was tested for the selective increase in basal stimulated AcCh release in cortex at 1 uM concentration.
The species entered for assay [22] is Rattus norvegicus. The experiment in a line: Compound was tested for the selective increase in basal stimulated AcCh release in cortex at 100 uM concentration.
The species entered for assay [23] is Rattus norvegicus. The experiment in a line: Compound was tested for the selective increase in K+ stimulated AcCh release in cortex at 1 uM concentration.
The species entered for assay [24] is Rattus norvegicus. The experiment in a line: Compound was tested for the selective increase in K+ stimulated AcCh release in brain region of hippocampus at 50 uM concentration.
For assay [25], the species on record is Rattus norvegicus. The experiment in a line: Compound was tested for the selective increase in basal stimulated AcCh release in cortex at 50 uM concentration.
The species entered for assay [26] is Rattus norvegicus. Put plainly: Compound was tested for the selective increase in basal stimulated AcCh release in striatum at 1 uM concentration.
The species entered for assay [27] is Rattus norvegicus. Put plainly: Compound was tested for the selective increase in K+ stimulated AcCh release in striatum 1 uM concentration.
Assay [28] is filed under the species Rattus norvegicus. Put plainly: Compound was tested for the selective increase in K+ stimulated AcCh release in brain region of hippocampus at 1 uM concentration.
Assay [29] is filed under the species Rattus norvegicus. Put plainly: Compound was tested for the selective increase in basal stimulated AcCh release in striatum at 100 uM concentration.
The species named for assay [30] is Rattus norvegicus. Put plainly: Compound was tested for the selective increase in K+ stimulated AcCh release in striatum 50 uM concentration.
Assay [31] is filed under the species Rattus norvegicus. The experiment in a line: Compound was tested for the selective increase in basal stimulated AcCh release in striatum at 10 uM concentration.

This note sets out measurements from ChEMBL document CHEMBL1126446, “Acetylcholine releasing agents as cognition activators. Chemistry and pharmacology of a series of ureas” (1992).

On to `O=C(N(c1ccncc1)c1ccc(Cl)c(Cl)c1)N(C1CCCCC1)C1CCCCC1`, for which the Control in assay [1] turned out to be 233.2%. Also, the “AcCh release (% of control)” value in [2] was 335.2%.

Turning to `Cc1ccc(N(C(=O)N(c2ccccc2)c2ccccc2)c2ccncc2)cc1`, the minimal effective dose in [3] was over 32 mg/kg. In assay [1], this molecule gave a Control of 229%. Moreover, the “AcCh release (% of control)” value in [2] is given as 186.4%.

Regarding `O=C(N(c1ccccc1)c1ccccc1)N(c1ccccc1)c1ccccc1`, the Control in assay [4] was found to be 402.4%; in assay [5], 209.3%; in assay [1] it was 420.6%; in assay [6], 303.7%; in [7], 144.1%. Moreover, in [2], the “AcCh release (% of control)” value is given as 137.8%.

`NC(=O)N(c1ccccc1)c1ccccc1`: the Control was determined as 105.9% in assay [4]; 111.4% in assay [5]; 128.7% in [1]; 98.9% in [6]; 105.1% in assay [7]. The “AcCh release (% of control)” value in assay [2] came out at 92.2%.

For the molecule `O=C(Nc1ccccc1)N(c1ccccc1)c1ccccc1`, the Control in [4] came to 259.5%; in assay [5], 195.7%; in assay [1] it was 151.3%; in assay [6], 224%; in [7], 100.3%. Further, the “AcCh release (% of control)” value in assay [2] is 78%.

As for `O=C(N(c1ccccc1)c1ccccc1)N(c1ccncc1)c1ccc(Cl)c(Cl)c1`, the minimal effective dose in assay [3] amounted to 32 mg/kg. The molecule also registered a Control in assay [1] of 46.6%. In addition, the “AcCh release (% of control)” value in [2] was 124.9%.

`O=C(N(c1ccccc1)c1ccncc1)N(c1ccc(F)cc1)c1ccc(F)cc1` gave a Control in [1] of 48.9%. Also, the “AcCh release (% of control)” value in [2] was 115.6%.

Consider `O=C(N(c1ccccc1)c1ccccc1)N(c1ccncc1)c1ccc(Cl)cc1`, for which the Control in assay [1] amounted to 231.4%. Moreover, the “AcCh release (% of control)” value in assay [2] is recorded as 159.2%.

`O=C(N(c1ccccc1)c1ccccc1)N(c1ccccc1)c1ccncc1`: the Control is given as 279.8% in assay [4]; 100% in assay [5]; 129.8% in assay [1]; 206.5% in assay [6]; 95.2% in assay [7]. The “AcCh release (% of control)” value in assay [2] is 95.4%.

In turn, `O=C(N(c1ccccc1)c1ccccc1)N(c1ccncc1)c1cccc(Cl)c1` displayed a Control in assay [1] of 9.8%. The “AcCh release (% of control)” value in [2] amounted to 103.4%.

In the case of `O=C(N(c1ccccc1)c1ccccc1)N(c1ccccc1)c1ccccn1`, the Control in assay [4] came out at 232.1%; in assay [5], 158.8%; in [1], 318.3%; in assay [6] it was 266.6%; in [7] it was 130%. The “AcCh release (% of control)” value in [2] is recorded as 113.5%.

On to `Nc1ccncc1N` [AMIFAMPRIDINE], for which the Control is given as 108.1% in assay [8]; 106.2% in assay [9]; 113.8% in [10]; 119% in [11]; 180.9% in assay [12]; 100.8% in assay [13]. For the same molecule, the Control in assay [14] came out at 103%; in assay [15] it was 106.9%; in assay [16], 105.9%; in [17], 114%; in assay [18], 127.8%; in [19] it was 110.8%. In addition, the Control in assay [20] was determined as 111.5%; in assay [21] it was 104.2%; in assay [22], 120.8%; in assay [23] it was 93.5%; in assay [24], 119.6%; in [25], 116%. Further, the Control is on record as 129.3% in assay [26]; 88.8% in assay [27]; 121.9% in [28]; 224.8% in [29]; 118.5% in [30]; 164.2% in assay [31].

As to `Nc1ccncc1` [DALFAMPRIDINE], the Control is recorded as 104% in [8]; 112.7% in assay [9]; 102.4% in assay [10]; 96.5% in [13]; 99.9% in assay [14]; 105% in [15]. Besides, the Control in assay [16] is 131.6%; in assay [17] it was 116.8%; in assay [18], 128.1%; in [19], 96.3%; in assay [20] it was 105.5%; in assay [21] it was 96.2%. In addition, the Control came out at 118% in [22]; 96.7% in [23]; 112.2% in assay [25]; 107.6% in assay [26]; 94% in assay [27]; 97.3% in [28]. The Control was found to be 170.9% in assay [29] and 131.5% in assay [31].

Regarding `O=C(Nc1ccccc1)Nc1ccccc1` [DIPHENYLUREA], the Control is listed as 97.1% in assay [4]; 125.8% in assay [5]; 138.6% in assay [1]; 98.8% in assay [6]; 101.9% in assay [7]. Moreover, in assay [2], the “AcCh release (% of control)” value is given as 89%.

`NC(=O)Nc1ccccc1` [PHENYLUREA]: the Control in assay [4] is on record as 99.3%; in assay [5], 116.4%; in assay [1], 107.9%; in [6], 99.8%; in assay [7], 105.8%. Besides, the “AcCh release (% of control)” value in [2] came out at 94.1%.
